Here are results for nine compounds from patent US12233070B2, “Methods for treating benzodiazepine misuse/use disorder” (University of M[…] Center, priority 2020, dated 2025).

Entries after “also recorded” stand apart in the source; their conditions may differ. Marks after values point to notes of the source that are not given here.

The bioavailability is the share of a dose that reaches the circulation, judged against a reference dose that is usually intravenous. Usually half-life stands for how long it takes for the measured level to halve.

Series [1] deals with α1 subunit-containing GABAA receptors (Homo sapiens, UniProt P14867+P18507). Further details: key to Subtype α1: act as partial positive modulators for particular subtype combinations; none: zero efficacy (i.e., antagonism) at other subtypes. The conditions noted are these: cited from earlier work.
Series [2] concerns the target α2 subunit-containing GABAA receptors (Homo sapiens, UniProt P18507+P47869). More on the design: key: act as partial positive modulators for particular subtype combinations; none: zero efficacy (i.e., antagonism) at other subtypes. The conditions noted are these: cited from earlier work.
Series [3] addresses α3 subunit-containing GABAA receptors (Homo sapiens, UniProt P18507+P34903). Further details: key: act as partial positive modulators for particular subtype combinations; none: zero efficacy (i.e., antagonism) at other subtypes. Conditions: cited from earlier work.
Series [4] has as its target α5 subunit-containing GABAA receptors (Homo sapiens, UniProt P18507+P31644). Further details: key to Subtype α5: act as partial positive modulators for particular subtype combinations; none: zero efficacy (i.e., antagonism) at other subtypes. Conditions: cited from earlier work.
Details of series [5]: key to Pharmacokinetics: “poor” - low bioavailability and/or short half-life; “good” - potent with long half-life. The conditions noted are these: in vivo; cited from earlier work.
The test system of series [6] is Sprague-Dawley rats. The experiment in a line: Food-maintained responding (FR 10), ligand alone. Conditions: for effect on rates of responding: diazepam 3.0 mg/kg.
The next series has as its system rats. Put plainly: Blockade of diazepam suppression of responding (30 min pretreatment). Format: in vivo, rat. Conditions: ligand 3.0 mg/kg; diazepam 30 min pretreatment; FIG. 12A; N=5. As to the method: This profile is very similar to that of TPA023B despite the structural differences. […] For both compounds, we chose 3.0 mg/kg, i.p., in rats based on published literature or pilot studies in our laboratories.
FIGS. 12A and 12B illustrate the results of acute dependency testing using these compounds.

For series [7], the system named is rhesus monkeys. The experiment in a line: Conflict model of anxiolysis (mult FR, FR+PUN). It is filed as in vivo, rhesus monkey. The conditions noted are these: i.v.; for Non-Suppressed, Mean responses/s (SEM) / Suppressed, Mean responses/s (SEM): N = 4 monkeys. An excerpt: The conflict procedure methodology includes a two-component multiple fixed-ratio, fixed-ratio plus punishment schedule (mult FR, FR+PUN). An important feature of this model is that it is highly predictive of clinically active doses in human subjects (Rowlett et al. 2006, Psychopharmacology 184: 201-11). One component of this schedule was associated with a distinctive visual stimulus (e.g., red light) and the other component was associated with a different stimulus (e.g., green light). In each component, completion of 10 responses (FR 10) produced a food pellet followed by a brief (10 sec) timeout period. The component ended following delivery of 5 food pellets or 5 min, whichever occurred first. A 10-min timeout period occurred before each of four cycles with two components (1 red, 1 green) per cycle. When performance in both components of the multiple schedule was stable, responding in one component was suppressed by superimposing a FR schedule of response-produced electric shock. Under the superimposed schedule, every nth response (n=15-25, adjusted for each monkey depending on individual performance) produced shock. Once responding was stable (at least three sessions in which suppressed responding was less than 50% of non-suppressed responding, with no upward or downward trend in response rates in either component), investigational compounds were administered i.v. during the extended timeout periods using a cumulative dosing technique. This technique allowed determination of a four-point dose-response function in a single session.
Table 2 summarizes data for TPA023B in the conflict procedure (n=4 monkeys, 2 females and 2 males), with alprazolam as a positive control. Average responses when vehicle was administered was 2.2 in the non-suppressed component, decreased by ˜98% by shock presentation in the suppressed component (mean=0.05 responses). For non-suppressed responding, TPA023B had no effects on mean rates of responding or percent of control over a 100-fold dose range (0.01 to 1.0 mg/kg, i.v.). […] This effect was similar to that observed with 0.03 mg/kg, i.v., of alprazolam. A striking characteristic of TPA023B in this procedure is the lack of attenuation of rates of responding at higher doses.

Series [8] has as its system rhesus monkeys. The experiment in a line: Observation/sedation, focal animal behavioral scoring. The conditions noted are these: at least one dose significantly different from vehicle; out of 22 behaviors; i.v.; N = 4 monkeys. It is filed as in vivo, rhesus monkey. As to the method: For the data shown here, the behavior of each monkey (n=4 total) was scored using a focal animal approach as described previously (Duke et al. 2018, J Pharmacol Exp Ther 366: 145-57). Briefly, a trained observer blind to the drug treatments observed a specific monkey for 5 min and recorded each instance that a particular behavior occurred during 15-s intervals. Scores for each behavior were calculated as the number of 15-s bins in which the behavior occurred (e.g., a maximum score would be 20). For sedation measures, structured exposure to stimuli were included in the observation sessions (Duke et al., 2018). […] Specifically, the observer presented three stimuli: 1) walked at a normal pace towards the cage, 2) spoke the animal's name, and 3) moved the lock used to secure the door of the cage. […] If the monkey attended more slowly (i.e., >3 s following stimuli), the observer scored “moderate sedation”.
The assessment of sedation was initiated during the 5-min sampling period if the animal presented, at any time during that period, with its eyes closed for longer than 3 s. The result of this assessment was recorded for each remaining 15-sec interval of the 60-sec epoch unless eyes opened. Afterwards, eyes closing again initiated the assessment. If eyes remained closed, then the assessment was repeated at the beginning of the next 60-sec epoch 15-sec interval. Therefore, the maximum score for sedation during a 5-min period was 20 (four possible scores for 4×15-sec intervals per min, 5 min total; i.e., 4 possible scores×5 min=20). The order in which animals were observed and the observer performing the scoring each day was randomized. Four observers participated in the scoring throughout the duration of the study; each observer underwent a minimum of 20 hours of training and met an inter-observer reliability criterion of ≥90% agreement with all other observers.
The five-min sampling periods were repeated at multiple times following i.v. injection of TPA023B or vehicle (minutes post injection): 5, 10, 20, 40, 80, 160, 320. Scores were cumulated across the time periods, resulting in a maximum possible cumulative score of 140. TPA023B was compared with alprazolam, and the results have been published by Duke et al. (2018).

The test system of series [9] is Sprague-Dawley rats. The experiment in a line: Pulmonary ventilation, whole body plethysmography. Conditions: 3.0 mg/kg, i.p.; N=8 rats. Format: in vivo, rat. On the procedure: We first assessed the effects of TPA023B, in comparison with alprazolam, using whole body plethysmography (WBP; DSI systems). For these studies, adult male Sprague-Dawley rats (n=8) were habituated to the chambers for 30 min. The chamber was then filled with 21% oxygen, sealed, and pressure fluctuation measured for 1 min. Next, the chamber was opened and the rats were injected with alprazolam or TPA023B, i.p., and placed into the sealed chamber for a 15 min pretreatment time. The chamber was again filled with 21% oxygen, and for 1 min, fluctuating pressure amounts were recorded to obtain tidal volume (lung capacity), breaths/minute, and minute volume (lung capacity per unit time).

The conditions of series [10]: rhesus monkey; cited from earlier work.
Series [11] concerns Sprague-Dawley rats. Put plainly: Precipitated withdrawal/acute dependence: responding 60 min after diazepam bolus. Format: in vivo, rat. On the procedure:
Acute dependence can occur after single exposures to the benzodiazepine chlordiazepoxide, but not to an α2/3GABAA selective ligand (Fischer et al. 2013, Psychopharmacology 227: 347-54). Here, the extent to which TPA023B can precipitate withdrawal in rats following a single, large bolus dose of diazepam was studied. […] Once rates of responding were stable, doses of diazepam, the non-selective benzodiazepine antagonist flumazenil, and TPA023B were administered prior to the session.

The subject of series [12] is rhesus monkeys. Put plainly: Midazolam self-administration (PR) after TPA023B pretreatment. It is filed as in vivo, rhesus monkey. The conditions noted are these: midazolam alone, PR procedure. On the procedure: To test this, we have trained monkeys to self-administer the short-acting conventional benzodiazepine midazolam (0.056 mg/kg/injection, i.v.) in the PR procedure, as described above. During test sessions, we initially kept the training dose of midazolam constant, and administered i.v. pretreatments of TPA023B (0.003, 0.01, 0.03, 0.1, 0.3 mg/kg, of vehicle) immediately prior to the beginning of the session. A key consideration for any pharmacotherapy, as well as interpretation of blockade of reinforcing effects generally, is the extent to which the blockade is specific to the drug target and not a generalized suppression of behavior, e.g., due to sedative-motor effects inhibiting the ability of the monkey to press the lever. Another possible confounding factor that would potentially result in blockade of drug taking is general sickness or perceptual alterations. In particular, appetite suppression would represent an undesirable side effect in a benzodiazepine addiction pharmacotherapy.
To further evaluate the extent to which attenuation of responding was due to pharmacological antagonism and to evaluate an exemplary range of effective doses, we evaluated single doses of TPA023B administered prior to sessions in which differing doses of midazolam were tested.

Chain of α3 subunit-containing GABAA receptors (P34903 29-492): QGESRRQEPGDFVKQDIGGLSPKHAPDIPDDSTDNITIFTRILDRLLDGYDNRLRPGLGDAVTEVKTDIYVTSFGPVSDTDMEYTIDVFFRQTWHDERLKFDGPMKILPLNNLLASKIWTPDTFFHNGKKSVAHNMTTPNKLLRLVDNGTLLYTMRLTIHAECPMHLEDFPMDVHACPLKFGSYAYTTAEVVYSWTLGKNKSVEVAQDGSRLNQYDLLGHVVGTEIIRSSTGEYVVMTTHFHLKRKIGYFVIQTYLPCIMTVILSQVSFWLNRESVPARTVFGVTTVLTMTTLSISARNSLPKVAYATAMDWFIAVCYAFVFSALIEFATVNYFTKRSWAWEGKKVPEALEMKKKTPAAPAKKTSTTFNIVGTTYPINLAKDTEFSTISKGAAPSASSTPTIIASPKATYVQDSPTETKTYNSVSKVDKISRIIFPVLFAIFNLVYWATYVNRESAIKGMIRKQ
Chain of α3 subunit-containing GABAA receptors (P18507 40-475): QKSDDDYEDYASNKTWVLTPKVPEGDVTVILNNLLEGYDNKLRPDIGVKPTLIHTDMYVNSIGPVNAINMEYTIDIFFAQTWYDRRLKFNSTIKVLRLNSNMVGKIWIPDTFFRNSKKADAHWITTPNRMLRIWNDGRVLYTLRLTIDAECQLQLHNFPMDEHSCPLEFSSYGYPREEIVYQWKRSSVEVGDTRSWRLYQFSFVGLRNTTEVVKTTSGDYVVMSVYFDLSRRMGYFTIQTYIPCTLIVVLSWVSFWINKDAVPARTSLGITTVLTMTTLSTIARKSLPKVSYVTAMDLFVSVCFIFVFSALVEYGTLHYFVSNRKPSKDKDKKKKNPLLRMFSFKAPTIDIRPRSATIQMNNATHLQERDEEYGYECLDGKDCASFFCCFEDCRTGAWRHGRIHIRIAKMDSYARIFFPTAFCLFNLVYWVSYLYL
Chain of α3 subunit-containing GABAA receptors (P28472 26-473 partner): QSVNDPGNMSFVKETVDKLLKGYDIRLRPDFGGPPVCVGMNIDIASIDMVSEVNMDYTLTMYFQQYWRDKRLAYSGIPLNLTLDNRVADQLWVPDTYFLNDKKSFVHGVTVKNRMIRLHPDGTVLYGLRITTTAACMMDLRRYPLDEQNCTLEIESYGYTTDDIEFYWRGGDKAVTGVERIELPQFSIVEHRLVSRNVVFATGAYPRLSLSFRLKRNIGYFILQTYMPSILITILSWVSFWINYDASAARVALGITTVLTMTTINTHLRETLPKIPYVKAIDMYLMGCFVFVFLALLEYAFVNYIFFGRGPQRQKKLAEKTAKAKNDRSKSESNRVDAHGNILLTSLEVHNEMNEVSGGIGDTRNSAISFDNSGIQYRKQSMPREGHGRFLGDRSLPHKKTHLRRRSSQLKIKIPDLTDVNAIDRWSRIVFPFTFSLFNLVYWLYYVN
Chain of α5 subunit-containing GABAA receptors (P31644 32-462): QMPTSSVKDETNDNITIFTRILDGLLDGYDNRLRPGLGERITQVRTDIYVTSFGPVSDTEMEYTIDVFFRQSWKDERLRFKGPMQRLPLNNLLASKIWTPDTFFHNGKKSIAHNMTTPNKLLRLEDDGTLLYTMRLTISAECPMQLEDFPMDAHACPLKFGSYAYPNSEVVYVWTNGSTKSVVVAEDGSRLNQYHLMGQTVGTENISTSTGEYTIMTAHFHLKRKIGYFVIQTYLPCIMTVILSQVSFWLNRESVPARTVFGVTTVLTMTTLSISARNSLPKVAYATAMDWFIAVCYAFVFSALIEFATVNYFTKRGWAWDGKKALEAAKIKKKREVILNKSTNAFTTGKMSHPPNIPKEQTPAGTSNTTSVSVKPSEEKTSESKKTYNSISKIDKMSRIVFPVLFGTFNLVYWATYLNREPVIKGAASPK
Chain of α5 subunit-containing GABAA receptors (P18507 40-475): as the sequence (P18507 40-475) above
Chain of α5 subunit-containing GABAA receptors (P28472 26-473 partner): as the sequence (P28472 26-473 partner) above
Chain of α2 subunit-containing GABAA receptors (P47869 29-451): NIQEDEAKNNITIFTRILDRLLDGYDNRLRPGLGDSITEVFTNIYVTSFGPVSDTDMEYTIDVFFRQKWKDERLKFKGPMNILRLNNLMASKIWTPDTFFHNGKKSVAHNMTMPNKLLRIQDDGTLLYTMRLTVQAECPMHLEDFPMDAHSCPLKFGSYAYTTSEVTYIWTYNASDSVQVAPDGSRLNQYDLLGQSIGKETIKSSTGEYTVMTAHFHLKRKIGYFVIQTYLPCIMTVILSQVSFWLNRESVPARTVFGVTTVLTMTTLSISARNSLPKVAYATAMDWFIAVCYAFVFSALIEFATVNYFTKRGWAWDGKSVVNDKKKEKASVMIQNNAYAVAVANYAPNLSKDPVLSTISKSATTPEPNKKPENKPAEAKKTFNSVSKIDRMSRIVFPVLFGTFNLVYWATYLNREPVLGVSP
Chain of α2 subunit-containing GABAA receptors (P18507 40-475): as the sequence (P18507 40-475) above
Chain of α2 subunit-containing GABAA receptors (P28472 26-473 partner): as the sequence (P28472 26-473 partner) above
Chain of α1 subunit-containing GABAA receptors (P14867 28-456): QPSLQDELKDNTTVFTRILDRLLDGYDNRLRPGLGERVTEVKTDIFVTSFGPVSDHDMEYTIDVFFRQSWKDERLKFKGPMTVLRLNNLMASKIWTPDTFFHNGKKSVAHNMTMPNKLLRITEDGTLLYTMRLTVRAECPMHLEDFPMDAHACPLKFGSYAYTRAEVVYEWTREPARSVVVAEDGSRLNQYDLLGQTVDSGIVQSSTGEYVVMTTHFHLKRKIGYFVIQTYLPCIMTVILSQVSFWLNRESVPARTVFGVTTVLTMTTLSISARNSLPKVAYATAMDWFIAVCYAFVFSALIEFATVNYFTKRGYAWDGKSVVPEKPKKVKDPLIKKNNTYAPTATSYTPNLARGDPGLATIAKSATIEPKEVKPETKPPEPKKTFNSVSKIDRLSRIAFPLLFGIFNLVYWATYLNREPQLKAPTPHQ
Chain of α1 subunit-containing GABAA receptors (P18507 40-475): as the sequence (P18507 40-475) above
Chain of α1 subunit-containing GABAA receptors (P28472 26-473 partner): as the sequence (P28472 26-473 partner) above

With MRK-409, in series [1], the “Subtype α1” value was “partial”. Moreover, in series [2], the “Subtype α2” value is “partial”. Moreover, the “Subtype α3” value in series [3] is reported as “partial”. In addition, in series [4], the “Subtype α5” value is listed as “partial”. Also, in [5], the Pharmacokinetics entry is “good”.
Consider `CN1C(=O)CN=C(c2ccccc2)c2cc(Cl)ccc21` [diazepam], for which, in the series on Sprague-Dawley rats [6] (N=8 rats, FIGS. 10A to 10C), the “mean rates of responding (percent of baseline control), ligand alone” value is on record as “significantly decreased”. Besides, the “effect on rates of responding” value is “most robust effects” in the series on Sprague-Dawley rats [6] (30 min pre-treatment) and “no effects” in the series with Sprague-Dawley rats [6] (60 min pre-treatment).
On to `Cn1ncnc1COc1nn2c(-c3cc(F)ccc3F)nnc2cc1C(C)(C)C` [L-838,417], for which the “ability of diazepam to suppress rates of responding” value with rats is given as “blocked”. In series [1], the “Subtype α1” value is on record as “none” and the “efficacy at α1GABAA subtype” value is given as “antagonist; also recorded: no efficacy”. In addition, the “Subtype α2” value in series [2] was “partial”. Besides, the “Subtype α3” value in series [3] is reported as “partial”. Moreover, in series [4], the “Subtype α5” value is recorded as “partial”. Besides, in series [5], the “PK” value is “Poor” and the Pharmacokinetics entry is given as “poor”.
For `Cc1nnc2n1-c1ccc(Cl)cc1C(c1ccccc1)=NC2` [Alprazolam, alprazolam], in the series with rhesus monkeys [7] (0.03 mg/kg), the “Non-Suppressed, Mean responses/s (SEM)” value is 1.8 (0.31) responses/s and the “Suppressed, Mean responses/s (SEM)” value is 1.9 (0.10)* responses/s. For the same compound, in the series on rhesus monkeys [7] (0.3 mg/kg), the “effect on non-suppressed responding” value was “markedly attenuated”; the “Non-Suppressed, Mean responses/s (SEM)” value is reported as 0.18 (0.09)* responses/s; the “Suppressed, Mean responses/s (SEM)” value is 0.10 (0.10) responses/s. Also, in the series on rhesus monkeys [8], the “Significant behavioral effects: Decrease” value is recorded as “Exploration; also recorded: Passive Visual, Tactile/Oral” and the “Significant behavioral effects: Increase” value is “Sedation, Deep Sedation,; also recorded: Observable Ataxia; also recorded: Rest/Sleep Posture, Moderate”. For the same compound, in the series on Sprague-Dawley rats [9], the breathing frequency entry was “significantly reduced” and the minute volume entry is “significantly reduced”.
`Cn1ncnc1COc1nn2c(-c3ccccc3F)nnc2cc1C1CCC1` [MRK-696]: the “Subtype α1” value in [1] is reported as “partial”. In series [2], the “Subtype α2” value is on record as “partial”. For the same compound, the “Subtype α3” value in series [3] is listed as “partial”. Moreover, in [4], the “Subtype α5” value is recorded as “partial”. The Pharmacokinetics entry in [5] is reported as “poor”.
With `N#Cc1cc(F)ccc1-c1cc(-c2cnc3nc(C(F)(F)F)ccn23)ccc1F` [MRK-898], in series [1], the “Subtype α1” value is on record as “none” and the “efficacy at α1GABAA subtype” value was “antagonist”. Further, the “Subtype α2” value in series [2] was “partial”. For the same compound, in series [3], the “Subtype α3” value is recorded as “partial”. In series [4], the “Subtype α5” value was “none” and the “efficacy at α5GABAA subtype” value is listed as “antagonist”. Moreover, in [5], the Pharmacokinetics result was “good”. Further, in series [10], the bioavailability is 49% and the half-life is reported as 13 h.
`Cn1ncnc1COc1nn2c(-c3ccccc3)nnc2cc1C1CCC1` [MRK-067]: the “PK” value in [5] is given as “poor”.
As for `CCOC(=O)c1ncn2c1CN(C)C(=O)c1cc(F)ccc1-2` [flumazenil, reference compound], in the series on Sprague-Dawley rats [11] (all doses tested, vs ligand alone, FIGS. 11A and 11B), the “rates of responding 60 min after 3.0 mg/kg diazepam (precipitated withdrawal)” value is listed as “robustly suppressed responding”. Moreover, the “rates of responding after 60-min pretreatment of diazepam (acute dependence)” value in the series on Sprague-Dawley rats [11] (ligand 3.0 mg/kg, FIG. 12B, N=5) was “significant decrease”. Moreover, the “ability of diazepam to suppress rates of responding” value with rats is given as “blocked”.
As for `Cc1ncc2n1-c1ccc(Cl)cc1C(c1ccccc1F)=NC2` [midazolam, reference compound], the “dose showing maximal self-administration” value with rhesus monkeys [12] amounted to 0.018 mg/kg/injection.
